Tested on: MT4
Test: Antiviral activity was determined by measurement of HIV-p24 antigen production in the supernatants of the infected MT-4 cell cultures with acommercially available HIV-antigen kit.
Format: functional, Homo sapiens

CC(=O)OCC1=CO[C@@H](OC(=O)CC(C)C)[C@H]2C1=C[C@H](OC(=O)CC(C)C)[C@]21CO1 [VALTRATE]
Inhibition: 44%

— ChEMBL document CHEMBL1136035, “New Rev-transport inhibitor with anti-HIV activity from Valerianae Radix” (2002)
